Results published in patent publication US11160797B2, “Pyridinone derivatives and their use as selective ALK-2 inhibitors” (NOVARTIS AG, priority 2017, dated 2021).

Key:
[1] = target: T1, wild-type ALK2 (aa172-499) (Homo sapiens (Human), UniProt Q04771); test: ADPGlo biochemical autophosphorylation assay, ALK2; conditions: 15 uM ATP
ALK3 (aa198-525) = ALK3 (aa198-525) (Homo sapiens (Human), UniProt P36894); test: ADPGlo biochemical autophosphorylation assay, ALK3; conditions: 15 uM ATP
[2] = target: T1, wild-type ALK2 (aa172-499); test: Caliper biochemical peptide phosphorylation assay, ALK2; conditions: Caliper peptide phosphorylation, 15 uM ATP; read-out: ALK2 IC50
[3] = target: ALK2 FOP mutant (aa172-499 R206H) (Homo sapiens (Human), UniProt Q04771, R206H); test: Caliper biochemical peptide phosphorylation assay, ALK2 FOP; conditions: Caliper peptide phosphorylation, R206H, 15 uM ATP; read-out: ALK2 FOP EPK IC50
ALK1 (aa166-493) = ALK1 (aa166-493) (Homo sapiens (Human), UniProt P37023); test: Caliper biochemical peptide phosphorylation assay, ALK1; conditions: 15 uM ATP
ALK5 (aa162-503) = ALK5 (aa162-503) (Homo sapiens (Human), UniProt P36897); test: Caliper biochemical peptide phosphorylation assay, ALK5; conditions: 15 uM ATP
Description: For all biochemical assays, human recombinant proteins were expressed in and purified from baculo virus transfected insect cells. The constructs comprised the GS-domain and kinase domain of wild-type ALK2 (aa172-499), ALK2 FOP mutant (aa172-499 R206H), ALK3 (aa198-525), ALK5 (aa162-503) and ALK6 (aa168-495).
A kinase selectivity panel which measures substrate peptide phosphorylation was set-up for wild-type ALK2 (aa172-499), ALK2 FOP mutant (aa172-499 R206H), ALK1 (aa166-493), ALK5 (aa162-503) and ALK6 (aa168-495). The technology used for the described assay is based on the separation and quantification of substrate and product in an electrical field. In the course of the kinase reaction the peptide substrate is phosphorylated by a kinase. […] Due to this difference in charge the phosphorylated und unphosphorylated peptides migrate with different velocities in an electrical field.
In the applied method, this separation takes place inside a chip that contains a complex capillary system for simultaneous analysis of 12 samples (“LabChip EZ Reader 12-sipper chip”, Caliper Technologies Corp., Mountain View, USA). In order to allow the detection and quantification of the peptides in the capillary system, the peptides carry a fluorescent label (fluorescein). With this label the peptides can be quantified by fluorescence intensity through the instruments laser and detection system (LC3000, Caliper Life Sciences).
The assays were performed in 384-well, low volume microtiter assay plates in a final reaction volume of 9 ul. Dose-response curves were generated by incubating 10 nM of each kinase together with 2 uM of the fluorescently labeled substrate peptide 5-Fluo-Ahx-[…]-T-[…]-amid (10 mM stock solution in DMSO) in 50 mM Hepes pH 7.5, 0.02% Tween 20, 0.02% BSA, 1 mM DTT, 10 uM Na3VO4, 10 mM ß-Glycerolphosphate, 1 mM MgCl2, 12 mM MnCl2 (ALK1 and ALK6 7 mM) and 15 uM ATP for 60 min at 30° C. in the presence or absence of compound diluted in DMSO.
Kinase reactions were terminated by adding 15 ul STOP buffer (100 mM HEPES pH 7.5, 5% DMSO, 0.1% Caliper coating reagent, 10 mM EDTA, and 0.015% Brij35.
Plates with terminated kinase reactions were transferred to the Caliper LC3000 workstation (Caliper Technologies Corp., Mountain View, USA) for reading. The relative amount of phosphorylated peptide r, was calculated using the heights of the substrate peak, s, and the product peak, p:r=p/(p+s).
IC50 values for a given antagonist correspond to the compound concentration needed to inhibit half of the maximum signal of the kinase reaction.

ALK6 (aa168-495) = ALK6 (aa168-495) (Homo sapiens (Human), UniProt O00238); test: Caliper biochemical peptide phosphorylation assay, ALK6; conditions: 15 uM ATP
[4] = tested on: HuH7 cells, BMP response element (BRE) luciferase reporter, BMP6 stimulated; test: BMP signaling reporter gene assay; type: cell-based; conditions: Homo sapiens, Huh-7; BMP6 100 ng/ml; read-out: MSD HuH7 cell BMP reporter IC50
Description: A human liver hepatocellular carcinoma cell line (HuH7) stably transfected with a reporter plasmid consisting of the human BMP response element (BRE) from the Id1 promoter fused to a luciferase reporter gene was generated through lentiviral transduction.
Assays were performed in 384-well flat bottom polystyrene microtiter plates (cell culture treated) with sterile lids. The cells were starved through medium exchange in Blasticidine- and FCS-free medium 16 h before the assay. Prior to the assay, cells were detached from the stock flask using trypsin/EDTA and counted. A cell suspension in the same medium without Blasticidin and FCS was prepared. 2×10^4 cells in a total volume of 40 ul were added to each well of a plate already containing serial dilutions of each compound in DMSO (final DMSO concentration 0.5%). […] Assay plates are incubated for another 5 hours at 37° C., 5% CO2 before luciferase levels are measured.
The amount of expressed luciferase is quantified using the Steady-Glo® Luciferase Assay System (Promega #E2520).

Sequence of ALK6 (aa168-495) (O00238 168-495): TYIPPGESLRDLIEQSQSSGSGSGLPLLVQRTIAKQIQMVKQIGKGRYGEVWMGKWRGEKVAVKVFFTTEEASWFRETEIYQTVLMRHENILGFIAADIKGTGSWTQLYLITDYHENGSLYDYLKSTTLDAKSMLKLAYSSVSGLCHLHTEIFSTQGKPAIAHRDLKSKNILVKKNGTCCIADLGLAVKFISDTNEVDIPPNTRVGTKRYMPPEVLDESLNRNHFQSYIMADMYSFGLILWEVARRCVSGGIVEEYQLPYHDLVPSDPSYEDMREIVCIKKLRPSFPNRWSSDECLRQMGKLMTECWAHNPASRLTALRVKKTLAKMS
T1 sequence (Q04771 172-499): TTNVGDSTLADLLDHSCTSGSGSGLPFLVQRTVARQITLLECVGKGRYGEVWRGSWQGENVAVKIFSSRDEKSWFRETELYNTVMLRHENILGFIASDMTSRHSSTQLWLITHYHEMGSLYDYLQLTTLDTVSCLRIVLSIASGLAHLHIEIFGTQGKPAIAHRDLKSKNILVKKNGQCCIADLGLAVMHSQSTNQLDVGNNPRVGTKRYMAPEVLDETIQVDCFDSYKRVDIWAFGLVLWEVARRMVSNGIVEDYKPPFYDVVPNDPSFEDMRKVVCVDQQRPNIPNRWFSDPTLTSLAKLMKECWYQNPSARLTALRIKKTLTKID
Sequence of ALK3 (aa198-525) (P36894 198-525): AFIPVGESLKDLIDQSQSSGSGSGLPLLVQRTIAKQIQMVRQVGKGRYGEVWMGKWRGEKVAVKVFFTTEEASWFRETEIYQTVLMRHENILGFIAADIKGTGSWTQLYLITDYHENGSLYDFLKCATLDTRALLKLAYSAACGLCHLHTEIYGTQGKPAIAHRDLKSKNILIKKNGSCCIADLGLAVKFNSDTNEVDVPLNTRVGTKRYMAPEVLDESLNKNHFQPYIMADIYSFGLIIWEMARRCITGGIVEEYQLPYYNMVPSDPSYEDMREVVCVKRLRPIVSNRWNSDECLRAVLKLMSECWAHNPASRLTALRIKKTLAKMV
Sequence of ALK1 (aa166-493) (P37023 166-493): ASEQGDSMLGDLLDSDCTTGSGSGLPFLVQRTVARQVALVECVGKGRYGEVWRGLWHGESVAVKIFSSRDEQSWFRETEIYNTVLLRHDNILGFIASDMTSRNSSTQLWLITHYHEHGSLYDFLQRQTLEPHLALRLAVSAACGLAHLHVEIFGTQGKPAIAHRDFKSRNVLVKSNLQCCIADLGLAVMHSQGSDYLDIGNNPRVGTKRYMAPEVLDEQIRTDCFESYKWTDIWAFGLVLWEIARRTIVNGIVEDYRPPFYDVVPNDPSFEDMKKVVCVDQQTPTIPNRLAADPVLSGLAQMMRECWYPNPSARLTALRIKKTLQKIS
Sequence of ALK5 (aa162-503) (P36897 162-503): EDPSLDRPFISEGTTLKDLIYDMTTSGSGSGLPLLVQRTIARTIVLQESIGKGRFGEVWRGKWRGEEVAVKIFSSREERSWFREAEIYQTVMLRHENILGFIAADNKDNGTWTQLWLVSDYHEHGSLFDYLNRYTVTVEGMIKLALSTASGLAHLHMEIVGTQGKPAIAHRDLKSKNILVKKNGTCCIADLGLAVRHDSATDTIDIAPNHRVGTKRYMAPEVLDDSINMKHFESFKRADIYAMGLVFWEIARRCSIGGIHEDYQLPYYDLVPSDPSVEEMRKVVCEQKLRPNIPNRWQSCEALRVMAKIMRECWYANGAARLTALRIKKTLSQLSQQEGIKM
Sequence of ALK2 FOP mutant (aa172-499 R206H) (Q04771 172-499 R206H): as the sequence (Q04771 172-499) above, with R35H counted along it

## CCCN1C(=O)Cc2cc(-c3cncc(-c4ccc(=O)n(C(C)C)c4)c3)ccc21 [Example 25, 5-(1′-Isopropyl-6′-oxo-1′,6′-dihydro-[3,3′-bipyridin]-5-yl)-1-propylindolin-2-one]
[1]
  IC50: 100 nM
ALK3 (aa198-525)
  IC50: 490 nM
[2]
  IC50: 80 nM
[3]
  IC50: 70 nM
ALK1 (aa166-493)
  IC50: 540 nM
ALK5 (aa162-503)
  IC50: 1500 nM
ALK6 (aa168-495)
  IC50: 1000 nM
[4]
  IC50: 90 nM

## CC(C)n1cc(-c2nc(-c3ccc4c(c3)CC(=O)N4C)cnc2N)ccc1=O [Example 43, 5-(5-amino-6-(1-isopropyl-6-oxo-1,6-dihydropyridin-3-yl)pyrazin-2-yl)-1-methylindolin-2-one]
[1]
  IC50: 90 nM
ALK3 (aa198-525)
  IC50: 600 nM
[2]
  IC50: 100 nM
[3]
  IC50: 90 nM
ALK1 (aa166-493)
  IC50: 520 nM
ALK5 (aa162-503)
  IC50: 1000 nM
ALK6 (aa168-495)
  IC50: 2000 nM
[4]
  IC50: 120 nM

## CC(C)n1cc(-c2cc(-c3ccc4c(c3)CC(=O)N4C)cnc2N)ccc1=O [Example 42, 5-(2-amino-1′-isopropyl-6′-oxo-1′,6′-dihydro-[3,3′-bipyridin]-5-yl)-1-methylindolin-2-one]
[1]
  IC50: 460 nM
ALK3 (aa198-525)
  IC50: 3400 nM
[2]
  IC50: 190 nM
[3]
  IC50: 150 nM
ALK1 (aa166-493)
  IC50: 1400 nM
ALK5 (aa162-503)
  IC50: 5600 nM
ALK6 (aa168-495)
  IC50: 3750 nM
[4]
  IC50: 310 nM

## CC(C)n1cc(-c2cncc(-c3ccc4c(c3)CC(=O)N4CCCO)c2)ccc1=O [Example 47, 1-(3-hydroxypropyl)-5-(1′-isopropyl-6′-oxo-1′,6′-dihydro-[3,3′-bipyridin]-5-yl)indolin-2-one]
[1]
  IC50: 175 nM
ALK3 (aa198-525)
  IC50: 1120 nM
[2]
  IC50: 140 nM
[3]
  IC50: 150 nM
ALK1 (aa166-493)
  IC50: 1100 nM
ALK5 (aa162-503)
  IC50: 4200 nM
ALK6 (aa168-495)
  IC50: 1500 nM
[4]
  IC50: 280 nM

## CC(C)n1cc(-c2cncc(-c3ccc4c(c3)CS(=O)(=O)N4CC3CCC3)c2)ccc1=O [Example 51, 5′-(1-(cyclobutylmethyl)-2,2-dioxido-1,3-dihydrobenzo[c]isothiazol-5-yl)-1-isopropyl-[3,3′-bipyridin]-6(1H)-one]
[1]
  IC50: 160 nM
ALK3 (aa198-525)
  IC50: 880 nM
[2]
  IC50: 160 nM
[3]
  IC50: 150 nM
ALK1 (aa166-493)
  IC50: 780 nM
ALK5 (aa162-503)
  IC50: 2700 nM
ALK6 (aa168-495)
  IC50: 1500 nM

## CCC1C(=O)N(C)c2ccc(-c3cncc(-c4ccc(=O)n(C(C)C)c4)c3)cc21 (stereo not shown) [Example 22, 3-Ethyl-5-(1′-isopropyl-6′-oxo-1′,6′-dihydro-[3,3′-bipyridin]-5-yl)-1-methylindolin-2-one]
[1]
  IC50: 725 nM
ALK3 (aa198-525)
  IC50: 4200 nM
[2]
  IC50: 390 nM
[3]
  IC50: 340 nM
ALK1 (aa166-493)
  IC50: 2170 nM
ALK5 (aa162-503)
  IC50: > 10000 nM
ALK6 (aa168-495)
  IC50: 2770 nM
[4]
  IC50: 540 nM

## CC(C)n1cc(-c2cncc(-c3cnc4c(c3)CCC(=O)N4C)c2)ccc1=O [Example 37, 6-(1′-Isopropyl-6′-oxo-1′,6′-dihydro-[3,3′-bipyridin]-5-yl)-1-methyl-3,4-dihydro-1,8-naphthyridin-2(1H)-one]
[1]
  IC50: 290 nM
ALK3 (aa198-525)
  IC50: 2500 nM
[2]
  IC50: 240 nM
[3]
  IC50: 240 nM
ALK1 (aa166-493)
  IC50: 1700 nM
ALK5 (aa162-503)
  IC50: > 10000 nM
ALK6 (aa168-495)
  IC50: 5400 nM
[4]
  IC50: 300 nM

## CC(C)n1cc(-c2cncc(-c3ccc4c(c3)CC(=O)N4CCO)c2)ccc1=O [Example 45, 1-(2-hydroxyethyl)-5-(1′-isopropyl-6′-oxo-1′,6′-dihydro-[3,3′-bipyridin]-5-yl)indolin-2-one]
[1]
  IC50: 160 nM
ALK3 (aa198-525)
  IC50: 1100 nM
[2]
  IC50: 120 nM
[3]
  IC50: 100 nM
ALK1 (aa166-493)
  IC50: 890 nM
ALK5 (aa162-503)
  IC50: 5000 nM
ALK6 (aa168-495)
  IC50: 1250 nM
[4]
  IC50: 210 nM

## CCN1c2ccc(-c3cncc(-c4ccc(=O)n(C(C)C)c4)c3)cc2CS1(=O)=O [Example 49, 5′-(1-ethyl-2,2-dioxido-1,3-dihydrobenzo[c]isothiazol-5-yl)-1-isopropyl-[3,3′-bipyridin]-6(1H)-one]
[1]
  IC50: 130 nM
ALK3 (aa198-525)
  IC50: 670 nM
[2]
  IC50: 140 nM
[3]
  IC50: 130 nM
ALK1 (aa166-493)
  IC50: 570 nM
ALK5 (aa162-503)
  IC50: 2900 nM
ALK6 (aa168-495)
  IC50: 1100 nM
